Assay results taken from patent US6682904B1, “Specific inhibitors of hyaluronidase 2, and methods of identifying and using same” (Deliatroph Pharmaceuticals, Inc., priority 2002, dated 2004).

Assays:
[1] = target: T1, human plasma hyaluronidase (Homo sapiens, UniProt Q12794); experiment: Effect of EDTA and added calcium on activity of purified human plasma hyaluronidase; format: biochemical; conditions: purified preparations of human plasma hyaluronidase
T1 construct: made in house
T1 sequence (Q12794 22-435): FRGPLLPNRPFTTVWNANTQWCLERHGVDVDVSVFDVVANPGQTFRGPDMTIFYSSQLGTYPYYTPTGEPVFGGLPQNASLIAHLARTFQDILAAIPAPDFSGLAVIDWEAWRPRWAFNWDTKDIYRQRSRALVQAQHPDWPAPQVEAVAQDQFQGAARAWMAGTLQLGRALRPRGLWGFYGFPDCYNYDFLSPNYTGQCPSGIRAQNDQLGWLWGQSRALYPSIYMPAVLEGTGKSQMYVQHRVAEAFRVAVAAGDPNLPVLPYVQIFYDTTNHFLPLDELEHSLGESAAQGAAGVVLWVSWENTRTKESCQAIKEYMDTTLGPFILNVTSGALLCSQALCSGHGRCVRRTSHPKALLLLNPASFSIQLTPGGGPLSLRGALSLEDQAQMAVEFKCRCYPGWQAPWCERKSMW
Description: One hundred mg of human umbilical cord HA (ICN Pharmaceuticals; Irvine Calif.) was dissolved in 0.1 M MES, pH 5.0, to a final concentration of 1 mg/ml and allowed to dissolve for at least 24 hr at 4° C. prior to coupling of biotin. Sulfo-NHS (Pierce; Rockford Ill.) was added to the hyaluronate MES solution to a final concentration of 0.184 mg/ml. Biotin hydrazide (Pierce) was dissolved in DMSO as a stock solution of 100 mM and added to the HA solution to a final concentration of 1 mM. A stock solution of 1-ethyl-3-(3-dimethylaminopropyl) carbidodiimide (EDAC) was prepared as a 100 mM stock solution in distilled water and added to the HA biotin solution at a final concentration of 30 mM. This solution was left stirring overnight at 4° C. […]
(§1) The reaction was terminated by the addition of 200 μl/well of 6M Guanidine HCl followed by three washes of 300 μl/well with PBS, 2 M NaCl, 50 mM MgSO4, 0.05% TWEEN 20 detergent (Buffer B). […] The plate was incubated in the dark for 10-15 min, then read using a 492 nm filter in an ELISA plate reader (Titertek Multiskan PLUS; ICN) monitored by computer using the Delta Soft II plate reader software from Biometallics (Princeton N.J.). A standard curve using the bovine testicular hyaluronidase was generated by a four parameter curve fit of the commercial hyaluronidase preparation and unknown samples were interpolated through their absorbance at 492 nm.

[2] = tested on: human foreskin primary keratinocyte cultures; experiment: Hyaluronidase activity in primary foreskin keratinocyte cultures after calcium-induced differentiation; format: cell-based; conditions: 1.5 mM calcium compared to 0.05 mM calcium, 72 hr in culture
Description: Hyaluronidase activity also was characterized in normal keratinocytes. Primary foreskin keratinocyte cultures were generated from circumcision tissue from […]. Briefly, tissue was washed 5× in PBS with penicillin, streptomycin, and fungizone, followed by digestion overnight at 4° C. in dispase. Epithelium was stripped from mesenchymal tissue with forceps and digested in trypsin followed by plating on collagen-coated plates in KGM (keratinocyte growth medium) with 0.05 mM calcium (Clonetics; San Diego Calif.). Cells were used between the first and fourth passage. To test the effects of induction of differentiation on hyaluronidase activity, cells were plated into 6 well plates and, at confluence, the medium was either replaced with fresh KGM with 0.05 mM calcium or changed to KGM with 1.5 mM calcium.
Cell layers and conditioned media were harvested after 72 hr in culture. Cell layers were harvested with 60 mM octylglucoside with 50 U/ml DNase I (Boehringer Mannheim; Indianapolis Ind.) and Complete™ protease inhibitor cocktail (Boehringer Mannheim) in PBS. Cells were extracted for 30 min on ice followed by centrifugation at 10,000× g for 10 min. Conditioned media from each sample was treated with octylglucoside and protease inhibitors. […] Activity was expressed as rTRU/mg cellular protein.

[3] = Microtiter-based hyaluronidase assay on immobilized biotinylated HA, pH dependence of enzyme activity; format: biochemical
Description: One hundred mg of human umbilical cord HA (ICN Pharmaceuticals; Irvine Calif.) was dissolved in 0.1 M MES, pH 5.0, to a final concentration of 1 mg/ml and allowed to dissolve for at least 24 hr at 4° C. prior to coupling of biotin. Sulfo-NHS (Pierce; Rockford Ill.) was added to the hyaluronate MES solution to a final concentration of 0.184 mg/ml. Biotin hydrazide (Pierce) was dissolved in DMSO as a stock solution of 100 mM and added to the HA solution to a final concentration of 1 mM. A stock solution of 1-ethyl-3-(3-dimethylaminopropyl) carbidodiimide (EDAC) was prepared as a 100 mM stock solution in distilled water and added to the HA biotin solution at a final concentration of 30 mM. This solution was left stirring overnight at 4° C. Unlinked biotin and EDAC were removed by dialysis against water with 3 changes of 1000× volume of water. The dialyzed, biotinylated HA (bHA) was aliquoted and stored at −20° C. for up to several months.
Sulfo-NHS was diluted to 0.184 mg/ml in water with the bHA at a concentration of 0.2 mg/ml and pipetted into 96 well COVALINK-NH plates (NUNC; Placerville N.J.) at 50 μl per well. EDAC was diluted to 0.123 mg/ml in water and pipetted into the COVALINK-NH plates with the HA solution resulting in a final concentration of 10 μg/well hyaluronate and 6.15 μg/well EDAC. […]
as §1, with “nm. […]” for “nm.”

For `O=C(O)CN(CCN(CC(=O)O)CC(=O)O)CC(=O)O` [EDTA, reference compound], which “inhibitory effect on enzyme activity” value [1] is on record?
The value was “no inhibitory effect”.

Which “stimulatory effect on enzyme activity” value ([1]; added calcium) does the source give for `[Ca+2]` [calcium] here?
Its value is “nor did added calcium have a stimulatory effect”.

What about the “increase in hyaluronidase activity in conditioned media and cell layer” value [2] of the same molecule?
The value was “approximately 25 fold”.

B1: Recombinant human plasma hyaluronidase: immunoaffinity purified recombinant human plasma hyaluronidase (HYAL1), acid-active enzyme (protein)
chain: T1 sequence (Q12794 22-435)
Which “pH optimum of hyaluronidase activity” value ([3]; 0.1 rTRU enzyme, 50 mM buffers pH 3-8 without NaCl, 30 min at 37° C.) does the source give for B1 here?
Its value is 3.8 pH.

What about the “enzyme activity above pH 4.5” value ([3]; above pH 4.5) of the same molecule?
The value was “no detectable activity”.

What about the “enzyme activity at neutral pH” value ([3]; neutral pH) of the same molecule?
Its value is “no activity was detected”.
